According to ChEMBL document CHEMBL2311317, “Organosilicon molecules with medicinal applications” (J Med Chem, 2013):

Target: Matrix protein 2 (Influenza A virus (A/Udorn/307/1972(H3N2)), UniProt P0DOF8, V27A)

SMILES	IC50 [µM]
NC1CC[Si]2(CCCC2)CC1	96.3
NC1CCC2(CCCC2)CC1	319
